Reference: patent US20220257635A1, “INJECTABLE NUTRITIONAL SUPPLEMENT” (CHEMVET AUSTRALIA PTY LTD, priority 2019, published 2022)

Assay: Stability storage of the Comparative Example 1 formulation at 5° C. and 40° C. (75% RH), vitamin B12 analysed
Assay type: physicochemical
Settings: in formulation of Table 2; for Vitamin B12 T = 1 month (mg/mL) 5° C.: 1 month at 5° C.; for Vitamin B12 T = 1 month (mg/mL) 40° C.: 1 month at 40° C. (75% RH); for Vitamin B12 T = 0 (mg/mL) 5° C.: T = 0, 5° C. sample; for Vitamin B12 T = 0 (mg/mL) 40° C.: T = 0, 40° C. (75% RH) sample
Method: To the formulation of Table 1, water-soluble disodium Copper EDTA and disodium Zinc EDTA, were successfully added at the rate of 107 g/L and 285 g/L respectively and then topped up with water to the required volume.
This formulation was sent to Chemical Analysis, and analysed at 0 time and placed on stability storage at 5° C. and 40° C. (75% RH).

Substance | Vitamin B12 T = 1 month (mg/mL) 5° C. [mg/mL] | Vitamin B12 T = 1 month (mg/mL) 40° C. [mg/mL] | Vitamin B12 T = 0 (mg/mL) 5° C. [mg/mL] | Vitamin B12 T = 0 (mg/mL) 40° C. [mg/mL]
Cyanocobalamin | 0.23 | 0.14 | 0.24 | 0.24
Hydroxocobalamin Acetate | 0.26 | 0.03 | 0.49 | 0.49
